Several values for one entry are separate records, joined by “and”; a condition that tells them apart may be missing. Equal entries are not always repeated. Toxic doses and inconclusive results are not listed.
Tested on: BDF1 mice, L1210 leukemia sc, survival T/C
Experiment: NCI In Vivo Anticancer Drug Screen. Data for tumor model L1210 Leukemia (subcutaneous) in B6D2F1 (BDF1) mice
Details: higher = longer survival
Summary of the method: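 Expressed as T/C: measurement in compound-treated, tumor-bearing mice relative to vehicle-treated control mice, based on survival or tumor size.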

[1] = endpoint: median survival time, dose: 14.0 mg/kg/injection, schedule: Q01DX Z (sc), vehicle: saline
[2] = endpoint: median survival time, dose: 23.0 mg/kg/injection, schedule: Q01DX Z (sc), vehicle: saline
[3] = endpoint: median survival time, dose: 39.0 mg/kg/injection, schedule: Q01DX Z (sc), vehicle: saline
[4] = endpoint: median survival time, dose: 65.0 mg/kg/injection, schedule: Q01DX Z (sc), vehicle: saline
[5] = endpoint: median survival time, dose: 108.0 mg/kg/injection, schedule: Q01DX Z (sc), vehicle: saline
[6] = endpoint: median survival time, dose: 3.0 mg/kg/injection, schedule: Q01DX Z (sc), vehicle: saline
[7] = endpoint: median survival time, dose: 5.0 mg/kg/injection, schedule: Q01DX Z (sc), vehicle: saline
[8] = endpoint: median survival time, dose: 8.4 mg/kg/injection, schedule: Q01DX Z (sc), vehicle: saline
[9] = endpoint: median survival time, dose: 300.0 mg/kg/injection, schedule: Q01DX Z (sc), vehicle: water
[10] = endpoint: median survival time, dose: 500.0 mg/kg/injection, schedule: Q01DX Z (sc), vehicle: water
[11] = endpoint: median survival time, dose: 23.0 mg/kg/injection, schedule: Q01DX Z (sc), vehicle: water
[12] = endpoint: median survival time, dose: 39.0 mg/kg/injection, schedule: Q01DX Z (sc), vehicle: water
[13] = endpoint: median survival time, dose: 65.0 mg/kg/injection, schedule: Q01DX Z (sc), vehicle: water
[14] = endpoint: median survival time, dose: 108.0 mg/kg/injection, schedule: Q01DX Z (sc), vehicle: water
[15] = endpoint: median survival time, dose: 180.0 mg/kg/injection, schedule: Q01DX Z (sc), vehicle: water
[16] = endpoint: median survival time, dose: 8.4 mg/kg/injection, schedule: Q01DX Z (sc), vehicle: methylcellulose (MC)
[17] = endpoint: median survival time, dose: 14.0 mg/kg/injection, schedule: Q01DX Z (sc), vehicle: methylcellulose (MC)
[18] = endpoint: median survival time, dose: 23.0 mg/kg/injection, schedule: Q01DX Z (sc), vehicle: methylcellulose (MC)
[19] = endpoint: mean survival time, dose: 6.25 mg/kg/injection, schedule: Q01DX009 (sc), vehicle: saline
[20] = endpoint: median survival time, dose: 8.4 mg/kg/injection, schedule: Q01DX Z (sc), vehicle: water
[21] = endpoint: median survival time, dose: 0.65 mg/kg/injection, schedule: Q01DX Z (sc), vehicle: methylcellulose (MC)
[22] = endpoint: median survival time, dose: 1.08 mg/kg/injection, schedule: Q01DX Z (sc), vehicle: methylcellulose (MC)
[23] = endpoint: median survival time, dose: 1.8 mg/kg/injection, schedule: Q01DX Z (sc), vehicle: methylcellulose (MC)
[24] = endpoint: median survival time, dose: 14.0 mg/kg/injection, schedule: Q01DX Z (sc), vehicle: water

With `CS(=O)(=O)Nc1ccc(Nc2c3ccccc3nc3cc(N)ccc23)cc1` the T/C (endpoint: mean survival time, dose: 1.0 mg/kg/injection, schedule: Q01DX009 (ip), vehicle: saline) was 103 % of control and the T/C (endpoint: mean survival time, dose: 2.0 mg/kg/injection, schedule: Q01DX009 (ip), vehicle: saline) was 99 % of control.

For `CNC=O`, the T/C (endpoint: median survival time, dose: 112.0 mg/kg/injection, schedule: Q01DX Z (sc), vehicle: saline) was 100 % of control, the T/C (endpoint: median survival time, dose: 187.0 mg/kg/injection, schedule: Q01DX Z (sc), vehicle: saline) was 104 % of control and the T/C (endpoint: median survival time, dose: 311.0 mg/kg/injection, schedule: Q01DX Z (sc), vehicle: saline) was 116 % of control.

In the case of `COC(=O)c1[nH]cnc1/N=N/N(C)C`, the T/C [1] is reported as 109 % of control, the T/C [2] is reported as 100 % of control and the T/C [3] is reported as 109 % of control. For the same compound, the T/C [4] was 104 % of control and the T/C [5] was 159 % of control.

With `COC12C(COC(N)=O)C3=C(C(=O)C(C)=C(N)C3=O)N1CC1C2N1C` (centres undefined) the T/C (endpoint: median survival time, dose: 1.8 mg/kg/injection, schedule: Q01DX Z (sc), vehicle: saline) was 100 % of control, the T/C (endpoint: median survival time, dose: 2.0 mg/kg/injection, schedule: Q01DX009 (ip), vehicle: saline) was 101 % of control and the T/C (endpoint: median survival time, dose: 2.0 mg/kg/injection, schedule: Q01DX009 (sc), vehicle: saline) was 103 % of control and 106 % of control. For the same compound, the T/C [6] was 100 % of control, the T/C (endpoint: median survival time, dose: 4.0 mg/kg/injection, schedule: Q01DX009 (ip), vehicle: saline) was 106 % of control and the T/C (endpoint: median survival time, dose: 4.0 mg/kg/injection, schedule: Q01DX009 (sc), vehicle: saline) was 104 % of control and 105 % of control. For the same compound, the T/C [7] was 100 % of control, the T/C (endpoint: median survival time, dose: 8.0 mg/kg/injection, schedule: Q01DX009 (ip), vehicle: saline) was 116 % of control and the T/C (endpoint: median survival time, dose: 8.0 mg/kg/injection, schedule: Q01DX009 (sc), vehicle: saline) was 107 % of control and 112 % of control. For the same compound, the T/C [8] was 100 % of control, the T/C (endpoint: median survival time, dose: 16.0 mg/kg/injection, schedule: Q01DX009 (sc), vehicle: saline) was 116 % of control and the T/C (endpoint: median survival time, dose: 32.0 mg/kg/injection, schedule: Q01DX009 (sc), vehicle: saline) was 92 % of control and 117 % of control.

In the case of `O=C(NC(CO)C(=O)O)C(Cl)Cl` (centres undefined), the T/C (endpoint: median survival time, dose: 138.8 mg/kg/injection, schedule: Q01DX Z (sc), vehicle: water) is reported as 100 % of control, the T/C [9] is reported as 100 % of control and the T/C [10] is reported as 100 % of control.

For `CCOC(C)C(=O)C=O` (centres undefined), the T/C [11] was 100 % of control, the T/C [12] was 100 % of control and the T/C [13] was 100 % of control. The T/C [14] was 100 % of control, the T/C [15] was 100 % of control and the T/C [9] was 100 % of control. The T/C [10] was 105 % of control.

With `COc1cc([C@@H]2c3cc4c(cc3[C@H](O)[C@H]3COC(=O)[C@H]23)OCO4)cc(OC)c1OC` the T/C (endpoint: median survival time, dose: 5.0 mg/kg/injection, schedule: Q01DX Z (sc), vehicle: methylcellulose (MC)) was 109 % of control, the T/C [16] was 109 % of control and the T/C [17] was 104 % of control. The T/C [18] was 109 % of control.

For `CC(=O)Nc1ccc2nc3ccc(NC(C)=O)cc3[n+](-c3ccccc3)c2c1`, the T/C [18] was 105 % of control and the T/C (endpoint: median survival time, dose: 65.0 mg/kg/injection, schedule: Q01DX Z (sc), vehicle: methylcellulose (MC)) was 105 % of control.

For `CC(C)CN(N)C(N)=O`, the T/C (endpoint: median survival time, dose: 78.0 mg/kg/injection, schedule: Q01DX Z (sc), vehicle: saline) was 100 % of control, the T/C (endpoint: median survival time, dose: 130.0 mg/kg/injection, schedule: Q01DX Z (sc), vehicle: saline) was 100 % of control and the T/C (endpoint: median survival time, dose: 216.0 mg/kg/injection, schedule: Q01DX Z (sc), vehicle: saline) was 100 % of control. The T/C (endpoint: median survival time, dose: 360.0 mg/kg/injection, schedule: Q01DX Z (sc), vehicle: saline) was 111 % of control and the T/C (endpoint: median survival time, dose: 600.0 mg/kg/injection, schedule: Q01DX Z (sc), vehicle: saline) was 111 % of control.

For `CC(=O)Nc1ccc2c(Nc3ccc(NS(C)(=O)=O)cc3)c3ccccc3nc2c1`, the T/C (endpoint: mean survival time, dose: 1.5 mg/kg/injection, schedule: Q01DX009 (sc), vehicle: saline) was 114 % of control, the T/C (endpoint: mean survival time, dose: 3.0 mg/kg/injection, schedule: Q01DX009 (sc), vehicle: saline) was 111 % of control and the T/C [19] was 121 % of control. The T/C (endpoint: mean survival time, dose: 12.5 mg/kg/injection, schedule: Q01DX009 (sc), vehicle: saline) was 182 % of control.

With `CS(=O)(=O)OCC(O)C(O)COS(C)(=O)=O` (centres undefined) the T/C [3] was 95 % of control, the T/C [4] was 91 % of control and the T/C [5] was 91 % of control. The T/C (endpoint: median survival time, dose: 180.0 mg/kg/injection, schedule: Q01DX Z (sc), vehicle: saline) was 91 % of control and the T/C (endpoint: median survival time, dose: 300.0 mg/kg/injection, schedule: Q01DX Z (sc), vehicle: saline) was 100 % of control.

With `CN=C(NC)c1ccc(NC(=O)Nc2ccc(NC(=O)Nc3ccc(C(=NC)NC)cc3)cc2)cc1` the T/C [6] was 100 % of control, the T/C [7] was 105 % of control and the T/C [8] was 100 % of control. For the same compound, the T/C [1] was 105 % of control, the T/C [3] was 115 % of control and the T/C [4] was 110 % of control.

With `NC(Cc1ccc(N(CCCl)CCCl)cc1)C(=O)O` (centres undefined) the T/C (endpoint: median survival time, dose: 1.09 mg/kg/injection, schedule: Q01DX Z (sc), vehicle: water) was 100 % of control, the T/C (endpoint: median survival time, dose: 1.81 mg/kg/injection, schedule: Q01DX Z (sc), vehicle: water) was 100 % of control and the T/C [6] was 100 % of control. The T/C (endpoint: median survival time, dose: 3.02 mg/kg/injection, schedule: Q01DX Z (sc), vehicle: water) was 95 % of control, the T/C [7] was 111 % of control and the T/C (endpoint: median survival time, dose: 5.04 mg/kg/injection, schedule: Q01DX Z (sc), vehicle: water) was 100 % of control. The T/C [20] was 100 % of control, the T/C [1] was 155 % of control and the T/C [2] was 122 % of control. For the same compound, the T/C [3] was 122 % of control, the T/C [4] was 122 % of control and the T/C [5] was 111 % of control.

In the case of `CCCCCn1c(C)cc(/C=C\c2ccc3cc(C)ccc3[n+]2C)c1C`, the T/C (endpoint: median survival time, dose: 0.23 mg/kg/injection, schedule: Q01DX Z (sc), vehicle: methylcellulose (MC)) is reported as 100 % of control, the T/C (endpoint: median survival time, dose: 0.39 mg/kg/injection, schedule: Q01DX Z (sc), vehicle: methylcellulose (MC)) is reported as 100 % of control and the T/C [21] is reported as 100 % of control. For the same compound, the T/C [22] was 100 % of control and the T/C [23] was 100 % of control.

For `Nc1ccc(S(=O)(=O)Nc2ccc(Nc3c4ccccc4nc4ccccc34)cc2)cc1`, the T/C (endpoint: median survival time, dose: 1.5 mg/kg/injection, schedule: Q01DX009 (ip), vehicle: saline with Tween-80) was 100 % of control, the T/C (endpoint: median survival time, dose: 3.0 mg/kg/injection, schedule: Q01DX009 (ip), vehicle: saline with Tween-80) was 112 % of control and the T/C (endpoint: median survival time, dose: 6.0 mg/kg/injection, schedule: Q01DX009 (ip), vehicle: saline with Tween-80) was 112 % of control. The T/C (endpoint: median survival time, dose: 12.0 mg/kg/injection, schedule: Q01DX009 (ip), vehicle: saline with Tween-80) was 112 % of control.

For `O=C(Nc1ccc(NC2=NCCN2)cc1)c1ccc(C(=O)Nc2ccc(NC3=NCCN3)cc2)cc1`, the T/C (endpoint: median survival time, dose: 1.08 mg/kg/injection, schedule: Q01DX Z (sc), vehicle: water) was 110 % of control, the T/C (endpoint: median survival time, dose: 1.8 mg/kg/injection, schedule: Q01DX Z (sc), vehicle: water) was 110 % of control and the T/C (endpoint: median survival time, dose: 5.0 mg/kg/injection, schedule: Q01DX Z (sc), vehicle: water) was 260 % of control. For the same compound, the T/C [20] was 175 % of control and the T/C [24] was 150 % of control.

`S=c1nc[nH]c2c1ncn2C1C=CCCC1` (centres undefined) was tested, and the T/C [17] was 100 % of control, the T/C (endpoint: median survival time, dose: 23.4 mg/kg/injection, schedule: Q01DX Z (sc), vehicle: methylcellulose (MC)) was 100 % of control and the T/C (endpoint: median survival time, dose: 108.0 mg/kg/injection, schedule: Q01DX Z (sc), vehicle: methylcellulose (MC)) was 100 % of control.

With `NC(Cc1c[nH]c2ccc(N(CCCl)CCCl)cc12)C(=O)O` (centres undefined) the T/C [21] was 105 % of control, the T/C [22] was 111 % of control and the T/C [23] was 123 % of control. The T/C [16] was 117 % of control.

With `COc1ccc2c(Nc3ccc(NS(C)(=O)=O)cc3)c3ccccc3nc2c1` the T/C [19] was 109 % of control.

With `CCCCC(C)(N)C(=O)O` (centres undefined) the T/C [24] was 95 % of control, the T/C [11] was 100 % of control and the T/C [12] was 100 % of control. For the same compound, the T/C [13] was 100 % of control, the T/C [14] was 100 % of control and the T/C [15] was 100 % of control. The T/C [9] was 100 % of control.

Source: PubChem BioAssay AID250 (DTP/NCI, 2004)
